Peptide text beside a SMILES is read from it.
Test: Body weight and normal-side kidney weight of tumor-bearing nude mice (toxic side effects)
Conditions: for Body weight of tumor-bearing nude mice: mean ± SEM; for Body weight, End / Relative body weight, End / Kidney weight on normal side / Body weight, Start / Relative body weight, Start: mean±SEM; for Renal weight/body mass index on normal side / Kidney weight on normal side: left kidney, end of experiment
From the text: Three days after the surgical modeling, the tumor-bearing mice were imaged with IVIS Spectrum CT in vivo, and the tumor-bearing mice were randomized over groups of 10 mice according to the luminescence intensity in the software analysis results.
Animals were observed daily and weighed every other day. Luminescence was detected with four times of in vivo imaging at day 1 (i.e., 3 days after surgical modeling), day 6, day 12 and day 15 from the experimental grouping. The time of in vivo imaging for luminescence detection was adjusted according to the survival and physical condition of the animals. At the end of the experiment (day 16) the animals were executed by neck dislocation, the kidney tissue and tumor masses was isolated for weighing and photographing, and the tumor masses were preserved in 4% formaldehyde solution for routine pathological testing.
The statistical analysis between groups was one-way ANOVA and Tukey’s test for pairwise comparison, and the statistical analysis between groups at different time points was two-way ANOVA and Bonferroni test for pairwise comparison.

CSCC[C@H](NC(=O)CNC(=O)CNC(=O)[C@H](CO)NC(=O)[C@H](CC(C)C)NC(=O)[C@@H]1CCCN1C(=O)[C@H](CO)NC(=O)[C@H](CC(N)=O)NC(=O)[C@H](CC(C)C)NC(=O)[C@H](C)NC(=O)[C@@H](NC(=O)[C@H](CC(C)C)NC(=O)[C@H](Cc1c[nH]cn1)NC(=O)[C@H](CC(C)C)NC(=O)[C@@H](NC(=O)[C@@H]1CCCN1C(=O)[C@H](CCC(N)=O)NC(=O)[C@H](Cc1ccccc1)NC(=O)[C@H](CC(=O)O)NC(=O)[C@H](CCCNC(=N)N)NC(=O)[C@H](Cc1c[nH]cn1)NC(=O)[C@H](CO)NC(=O)[C@H](Cc1c[nH]cn1)NC(=O)[C@H](CCSC)NC(=O)[C@H](CC(=O)O)NC(=O)CNC(=O)[C@H](CCCNC(=N)N)NC(=O)[C@H](CC(=O)O)NC(=O)CNC(=O)[C@@H](N)CCCNC(=N)N)C(C)C)C(C)C)C(=O)O [HYD-PEP06] (H-RGDRGDMHSHRDFQPVLHLVALNSPLSGGM-OH)
Body weight of tumor-bearing nude mice (5 mg/kg i.v. once a day, Day 1): 20.8 ± 0.6 g | Body weight of tumor-bearing nude mice (5 mg/kg i.v. once a day, Day 4): 21.8 ± 0.6 g | Body weight of tumor-bearing nude mice (5 mg/kg i.v. once a day, Day 7): 21.2 ± 0.6 g | Body weight of tumor-bearing nude mice (5 mg/kg i.v. once a day, Day 10): 20.9 ± 0.5 g | Body weight of tumor-bearing nude mice (5 mg/kg i.v. once a day, Day 13): 21.1 ± 0.4 g | Body weight of tumor-bearing nude mice (5 mg/kg i.v. once a day, Day 16): 21.0 ± 0.4 g | Body weight, End (5 mg/kg i.v. x15): 21.0 ± 0.4 g | Relative body weight, End (5 mg/kg i.v. x15): 101.6 ± 1.9% | Renal weight/body mass index on normal side (5 mg/kg i.v. x15): 0.85+0.01% | Kidney weight on normal side (5 mg/kg i.v. x15): 0.178 ± 0.003 g | Body weight, Start (5 mg/kg i.v. x15): 20.8 ± 0.6 g | Relative body weight, Start (5 mg/kg i.v. x15): 100.0±0.0% | Body weight of tumor-bearing nude mice (10 mg/kg i.v. once a day, Day 1): 20.2 ± 0.4 g | Body weight of tumor-bearing nude mice (10 mg/kg i.v. once a day, Day 4): 21.9 ± 0.3 g | Body weight of tumor-bearing nude mice (10 mg/kg i.v. once a day, Day 7): 21.1 ± 0.3 g | Body weight of tumor-bearing nude mice (10 mg/kg i.v. once a day, Day 10): 21.2 ± 0.3 g | Body weight of tumor-bearing nude mice (10 mg/kg i.v. once a day, Day 13): 21.3 ± 0.2 g | Body weight of tumor-bearing nude mice (10 mg/kg i.v. once a day, Day 16): 21.0 ± 0.4 g | Body weight, End (10 mg/kg i.v. x15): 21.0 ± 0.4 g | Relative body weight, End (10 mg/kg i.v. x15): 104.0±2.2% | Renal weight/body mass index on normal side (10 mg/kg i.v. x15): 0.85±0.02% | Kidney weight on normal side (10 mg/kg i.v. x15): 0.178 ± 0.006 g | Body weight, Start (10 mg/kg i.v. x15): 20.2 ± 0.4 g | Relative body weight, Start (10 mg/kg i.v. x15): 100.0±0.0% | Body weight of tumor-bearing nude mice (20 mg/kg i.v. once a day, Day 1): 20.3 ± 0.4 g | Body weight of tumor-bearing nude mice (20 mg/kg i.v. once a day, Day 4): 21.6 ± 0.4 g | Body weight of tumor-bearing nude mice (20 mg/kg i.v. once a day, Day 7): 20.9 ± 0.5 g | Body weight of tumor-bearing nude mice (20 mg/kg i.v. once a day, Day 10): 20.9 ± 0.5 g | Body weight of tumor-bearing nude mice (20 mg/kg i.v. once a day, Day 13): 21.3 ± 0.6 g | Body weight of tumor-bearing nude mice (20 mg/kg i.v. once a day, Day 16): 21.3 ± 0.6 g | Body weight, End (20 mg/kg i.v. x15): 21.3 ± 0.6 g | Relative body weight, End (20 mg/kg i.v. x15): 104.9±3.3% | Renal weight/body mass index on normal side (20 mg/kg i.v. x15): 0.86+0.01% | Kidney weight on normal side (20 mg/kg i.v. x15): 0.182 ± 0.005 g | Body weight, Start (20 mg/kg i.v. x15): 20.3 ± 0.4 g | Relative body weight, Start (20 mg/kg i.v. x15): 100.0±0.0% | Kidney weight, kidney weight/body mass index in the normal side (left side) and body weight vs model control group (5, 10, 20 mg/kg i.v. x15): No significant differences | Toxic side effects (at the effective dose (5-20 mg/kg i.v. x15)): did not show significant toxic side effects

— patent publication US20230181696A1, “POLYPEPTIDE DRUG FOR PREVENTING AND/OR TREATING NEUROBLASTOMA AND USE THEREOF” (ZHUHAI TENGBAI PHARMACEUTICAL CO., LTD., priority 2020, published 2023)
